Measured values: patent publication US20220305178A1, “CANCER TREATMENT BY IN VITRO AMINO ACID DEPRIVATION” (YUANHENG BIOMEDICAL CO., LTD., priority 2021, published 2022)

How the values were obtained:
[1] = Modified hemodialysis of simulated blood with Asparaginase in the dialysate, amino acids by UPLC; type: biochemical, pig; settings: for concentration of Asn of the simulated blood / concentration of Arg of the simulated blood / concentration of Gln of the simulated blood / concentration of Met of the simulated blood / concentration of Ser of the simulated blood: Experimental group 1, Asparaginase 1 K.U./ml in dialysate; for concentration of Arg of the simulated blood / concentration of Gln of the simulated blood / concentration of Met of the simulated blood / concentration of Ser of the simulated blood: non-target amino acid
Procedure: 900 ml of pig's blood and 100 ml of Gibco Roswell Park Memorial Institute (RPMI) 1640 Medium (RPMI 1640 Medium) were mixed to obtain a diluted pig's blood. The diluted pig's blood was further added with 1.8 mg/ml EDTA-K^2+, 0.05% sodium azide; and 132 μl of Heparin with the concentration of 5000 U/ml to obtain a simulated blood, wherein the concentration of EDTA-K^2+ of the simulated blood was […].
The dialysis machine is Toray TR-321. The dialysate for extracorporeal circulation was triple the amount of the simulated blood and was 3000 ml, and the flow rate of dialysate was 500 ml/min. Before the simulated blood entered the dialysis machine, 1X PBS was used to clean the circulation pipeline of the dialysis machine, to achieve the required balance of the artificial kidney (Polyflux 17L), and to get rid of all bubbles in the artificial kidney, and the circulation speed was 250 ml/min. Besides, the effective membrane area of the artificial kidney is 1.7 m^2.
The dialysate consisted of Buffer A (hemodialysis concentrate No. 16, purchased from Taiwan Biotech Co., LTD), Buffer B (Sodium Bicarbonate Concentrate 8.4%, purchased from Fressenius Medical Care Ag, 61348 Bad Homburg, Germany) and R.O. water, wherein the volume ratio of Buffer A, Buffer B and R.O. water is 1:1.225:32.775.
The target amino acid is Asparagine (Asn), and the rest are non-target amino acids. The 3000 ml dialysate was added with 3 ml of Asparaginase with the concentration of 1000 K.U./ml (LEUNASE®) in the Experimental group 1, so the concentration of Asparaginase in the dialysate is 1 K.U./ml. No Asparaginase was added in the Control group 1.
The conductivity of the dialysate was adjusted to about 14 mS/cm. The dialysis temperature was set to be 37° C. When the pressure of the circulation pipeline, the temperature and the conductivity of the dialysate reached the desirable value and were stable, a green light signaled to indicate that hemodialysis was ready. The simulated blood was pumped into the circulation pipeline and entered the artificial kidney. Besides, the simulated blood was further added with Heparin with the concentration of 5000 U/ml at the flow rate of 4.4 ml/hour before the simulated blood entered the artificial kidney. The concentrations of amino acids in the simulated blood before and after dialysis were detected by ultra performance liquid chromatography (UPLC) and the results were shown in Table 1 and Table 2.

[2] = Modified peritoneal dialysis of peritoneal fluid (RPMI 1640 diluent) with Asparaginase in the dialysate (Example 3); type: biochemical
Procedure: (§1) RPMI 1640 Medium was ten times diluted to obtain 1 L of RPMI 1640 diluent with Dianeal PD-2 (Peritoneal Dialysis Solution) and to serve as a peritoneal fluid for the control group 2. 1 L and 2 L of the same RPMI 1640 diluent was prepared for the Experimental group 2 and Experimental group 3, respectively.
(§2) The flow rate or circulation speed of the dialysate was 250 ml/min. Before the peritoneal fluid (RPMI 1640 diluent) entered the dialysis machine, RPMI 1640 diluent was also used to clean the circulation pipeline of the dialysis machine, to achieve the required equilibrium of the artificial kidney, and to get rid of all bubbles in the artificial kidney. Besides, the artificial kidneys of the control group 2 and the experimental group 2 were NV-15U with the effective membrane area of 1.5 m^2; and the artificial kidney of the experimental group 3 was NV-21U with the effective membrane area of 2.1 m^2.
(§3) The dialysate is DIANEAL PD-2 Peritoneal Dialysis Solution with 1.5% Dextrose (Baxter). The target amino acid is Asparagine (Asn), and the concentration of Asparaginase in the dialysate is 1 K.U./ml in the Experimental groups 2 & 3. No Asparaginase was added in the control group 2.
(§4) The dialysis temperature was set to be 37° C. The peritoneal fluid (RPMI 1640 diluent) was first pumped into slot A for temporary storage and then entered the artificial kidney. After peritoneal fluid (RPMI 1640 diluent) left the artificial kidney, peritoneal fluid (RPMI 1640 diluent) further entered slot B for temporary storage, and then left the dialysis machine, e.g. the peritoneal fluid (RPMI 1640 diluent) was pumped back to the peritoneal cavity of the patient. The concentrations of amino acids in the peritoneal fluid before and after dialysis were studied by using Amino Acid Analysis Systems (Waters UPLC® Amino Acid Analysis (AAA) Solution) and the result was shown in Table 3 to Table 5.

[3] = Modified peritoneal dialysis with artificial kidneys of different effective membrane areas (Example 4); type: biochemical; settings: for Arg (%) of the peritoneal fluid / Arg (μM) of the peritoneal fluid: non-target amino acid
Procedure: as §1, §2, §3, §4
Example 4 was carried out with the method the same as Example 3 except that the artificial kidneys with different effective membrane areas were adopted. The concentrations of amino acids in the peritoneal fluid before and after dialysis were studied and the result was shown in Table 6.

[4] = dialyzer BG-1.6U (1.6 m^2), dialysis time 0 min
[5] = dialyzer BG-1.6U (1.6 m^2), dialysis time 3 min
[6] = dialyzer BG-1.6U (1.6 m^2), dialysis time 5 min
[7] = dialyzer BG-1.6U (1.6 m^2), dialysis time 10 min
[8] = dialyzer BG-1.6U (1.6 m^2), dialysis time 20 min
[9] = dialyzer BG-1.8U (1.8 m^2), dialysis time 0 min
[10] = dialyzer BG-1.8U (1.8 m^2), dialysis time 3 min
[11] = dialyzer BG-1.8U (1.8 m^2), dialysis time 5 min
[12] = dialyzer BG-1.8U (1.8 m^2), dialysis time 10 min
[13] = dialyzer BG-1.8U (1.8 m^2), dialysis time 20 min
[14] = dialyzer polyflux-140H (1.4 m^2), dialysis time 0 min
[15] = dialyzer polyflux-140H (1.4 m^2), dialysis time 3 min
[16] = dialyzer polyflux-140H (1.4 m^2), dialysis time 5 min
[17] = dialyzer polyflux-140H (1.4 m^2), dialysis time 10 min
[18] = dialyzer polyflux-140H (1.4 m^2), dialysis time 20 min

Substance: Asparaginase
- concentration of Asn of the simulated blood ([1]; Polyflux 17L 1.7 m^2, dialysis time 0 min): 41.8 µM
- concentration of Asn of the simulated blood ([1]; Polyflux 17L 1.7 m^2, dialysis time 3 min): 32.3 µM
- concentration of Asn of the simulated blood ([1]; Polyflux 17L 1.7 m^2, dialysis time 5 min): 24.2 µM
- concentration of Arg of the simulated blood ([1]; dialysis time 0 min): 212.4 µM
- concentration of Gln of the simulated blood ([1]; dialysis time 0 min): 381.8 µM
- concentration of Met of the simulated blood ([1]; dialysis time 0 min): 38.5 µM
- concentration of Ser of the simulated blood ([1]; dialysis time 0 min): 159.8 µM
- concentration of Arg of the simulated blood ([1]; dialysis time 3 min): 83.0 µM
- concentration of Gln of the simulated blood ([1]; dialysis time 3 min): 147.5 µM
- concentration of Met of the simulated blood ([1]; dialysis time 3 min): 16.0 µM
- concentration of Ser of the simulated blood ([1]; dialysis time 3 min): 67.7 µM
- concentration of Arg of the simulated blood ([1]; dialysis time 5 min): 74.6 µM
- concentration of Gln of the simulated blood ([1]; dialysis time 5 min): 131.5 µM
- concentration of Met of the simulated blood ([1]; dialysis time 5 min): 14.4 µM
- concentration of Ser of the simulated blood ([1]; dialysis time 5 min): 63.2 µM
- concentration of Arg of the simulated blood ([1]; dialysis time 10 min): 16.9 µM
- concentration of Gln of the simulated blood ([1]; dialysis time 10 min): 24.2 µM
- concentration of Met of the simulated blood ([1]; dialysis time 10 min): 3.7 µM
- concentration of Ser of the simulated blood ([1]; dialysis time 10 min): 17.5 µM
- concentration of Arg of the simulated blood ([1]; dialysis time 20 min): 14.7 µM
- concentration of Gln of the simulated blood ([1]; dialysis time 20 min): 18.2 µM
- concentration of Met of the simulated blood ([1]; dialysis time 20 min): 3.8 µM
- concentration of Ser of the simulated blood ([1]; dialysis time 20 min): 20.0 µM
- concentration of Arg of the simulated blood ([1]; dialysis time 30 min): 14.3 µM
- concentration of Gln of the simulated blood ([1]; dialysis time 30 min): 18.3 µM
- concentration of Met of the simulated blood ([1]; dialysis time 30 min): 3.5 µM
- concentration of Ser of the simulated blood ([1]; dialysis time 30 min): 17.8 µM
- dialysis time within which Asparagine (Asn) is undetectable ([1]; Experimental group 1, simulated blood, LOD of Asparagine 5 μM): ≤ 10 min
- concentration of Asn of the peritoneal fluid ([2]; experimental group 2, Asparaginase 1 K.U./ml in dialysate, NV-15U 1.5 m^2, dialysis time 0 min): 27.284 µM
- concentration of Asn of the peritoneal fluid ([2]; experimental group 2, Asparaginase 1 K.U./ml in dialysate, NV-15U 1.5 m^2, dialysis time 3 min): 23.254 µM
- concentration of Asn of the peritoneal fluid ([2]; experimental group 2, Asparaginase 1 K.U./ml in dialysate, NV-15U 1.5 m^2, dialysis time 5 min): 9.088 µM
- concentration of Arg of the peritoneal fluid ([2]; experimental group 2, Asparaginase 1 K.U./ml in dialysate, NV-15U 1.5 m^2, non-target amino acid, dialysis time 0 min): 102.6 µM
- concentration of Arg of the peritoneal fluid ([2]; experimental group 2, Asparaginase 1 K.U./ml in dialysate, NV-15U 1.5 m^2, non-target amino acid, dialysis time 3 min): 90.0 µM
- concentration of Arg of the peritoneal fluid ([2]; experimental group 2, Asparaginase 1 K.U./ml in dialysate, NV-15U 1.5 m^2, non-target amino acid, dialysis time 5 min): 70.5 µM
- dialysis time within which Arginine (Arg) is lower to 50% of the original concentration ([2]; experimental group 2, NV-15U 1.5 m^2): ≤ 10 min
- concentration of Asparagine (Asn) relative to original ([2]; experimental group 2, within 5 mins of dialysis): less than 50%
- concentration of Asn of the peritoneal fluid ([2]; experimental group 3, Asparaginase 1 K.U./ml in dialysate, NV-21U 2.1 m^2, dialysis time 0 min): 30.674 µM
- concentration of Arg of the peritoneal fluid ([2]; experimental group 3, Asparaginase 1 K.U./ml in dialysate, NV-21U 2.1 m^2, non-target amino acid, dialysis time 0 min): 83.86 µM
- concentration of Arg of the peritoneal fluid ([2]; experimental group 3, Asparaginase 1 K.U./ml in dialysate, NV-21U 2.1 m^2, non-target amino acid, dialysis time 3 min): 70.12 µM
- concentration of Arg of the peritoneal fluid ([2]; experimental group 3, Asparaginase 1 K.U./ml in dialysate, NV-21U 2.1 m^2, non-target amino acid, dialysis time 5 min): 37.31 µM
- concentration of Arg of the peritoneal fluid ([2]; experimental group 3, Asparaginase 1 K.U./ml in dialysate, NV-21U 2.1 m^2, non-target amino acid, dialysis time 10 min): 19.99 µM
- dialysis time within which Arginine (Arg) is lower to 50% of the original concentration ([2]; experimental group 3, NV-21U 2.1 m^2): ≤ 5 min
- dialysis time within which Asparagine (Asn) is undetectable ([2]; experimental group 3, NV-21U 2.1 m^2, peritoneal fluid, LOD of Asparagine 5 μM): ≤ 3 min
- concentration of non-target amino acid maintained ([3]; Example 4, artificial kidneys 1.4 to 1.8 m^2): about 50%
- Asn (%) of the peritoneal fluid [3, 4]: 100%
- Asn (μM) of the peritoneal fluid [3, 4]: 45.5 µM
- Asn (%) of the peritoneal fluid [3, 5]: 73.90%
- Asn (μM) of the peritoneal fluid [3, 5]: 33.6 µM
- Arg (%) of the peritoneal fluid [3, 4]: 100%
- Arg (μM) of the peritoneal fluid [3, 4]: 95.3 µM
- Arg (%) of the peritoneal fluid [3, 5]: 86.3%
- Arg (μM) of the peritoneal fluid [3, 5]: 82.2 µM
- Arg (%) of the peritoneal fluid [3, 6]: 74.8%
- Arg (μM) of the peritoneal fluid [3, 6]: 71.3 µM
- Arg (%) of the peritoneal fluid [3, 7]: 65.8%
- Arg (μM) of the peritoneal fluid [3, 7]: 62.7 µM
- Arg (%) of the peritoneal fluid [3, 8]: 49.7%
- Arg (μM) of the peritoneal fluid [3, 8]: 47.4 µM
- Asn (%) of the peritoneal fluid [3, 9]: 100%
- Asn (μM) of the peritoneal fluid [3, 9]: 36.7 µM
- Arg (%) of the peritoneal fluid [3, 9]: 100%
- Arg (μM) of the peritoneal fluid [3, 9]: 89.0 µM
- Arg (%) of the peritoneal fluid [3, 10]: 75.1%
- Arg (μM) of the peritoneal fluid [3, 10]: 66.8 µM
- Arg (%) of the peritoneal fluid [3, 11]: 76.5%
- Arg (μM) of the peritoneal fluid [3, 11]: 68.0 µM
- Arg (%) of the peritoneal fluid [3, 12]: 61.5%
- Arg (μM) of the peritoneal fluid [3, 12]: 54.7 µM
- Arg (%) of the peritoneal fluid [3, 13]: 61.2%
- Arg (μM) of the peritoneal fluid [3, 13]: 54.4 µM
- Asn (%) of the peritoneal fluid [3, 14]: 100%
- Asn (μM) of the peritoneal fluid [3, 14]: 36.9 µM
- Asn (%) of the peritoneal fluid [3, 15]: 85.8%
- Asn (μM) of the peritoneal fluid [3, 15]: 31.6 µM
- Asn (%) of the peritoneal fluid [3, 16]: 62.3%
- Asn (μM) of the peritoneal fluid [3, 16]: 23.0 µM
- Arg (%) of the peritoneal fluid [3, 14]: 100%
- Arg (μM) of the peritoneal fluid [3, 14]: 93.7 µM
- Arg (%) of the peritoneal fluid [3, 15]: 93.6%
- Arg (μM) of the peritoneal fluid [3, 15]: 87.6 µM
- Arg (%) of the peritoneal fluid [3, 16]: 84.8%
- Arg (μM) of the peritoneal fluid [3, 16]: 79.4 µM
- Arg (%) of the peritoneal fluid [3, 17]: 71.4%
- Arg (μM) of the peritoneal fluid [3, 17]: 66.9 µM
- Arg (%) of the peritoneal fluid [3, 18]: 57.9%
- Arg (μM) of the peritoneal fluid [3, 18]: 54.2 µM
